Tests used:
Experiment in all cases: Checkerboard MIC assay, FICI
Details in all cases: combination with Compound 1
[1] = test system: F. moniliforme ATCC 38159; format: cell-based, Fusarium moniliforme
From the text: (§1) The following assay was used to determine the minimum inhibitory concentration (MIC) and fractional inhibitory concentration index (FICI) for combinations of an antifungal agent and a glycopeptide antibacterial agent. This assay and methods for calculating FICI are well known in the art. See, for example, Eliopoulos, E. G. and R. Moellering, Jr. “Antimicrobial Combinations” in Antibiotics in Laboratory Medicine, edited by V. Lorian, 4th Ed., Williams & Wilkins, Baltimore, MD, pp. 330-396 (1996); […] et al., Antimicrobial Agents and Chemotherapy 47(4):1416-1418 (2003); or […] et al., Antimicrobial Agents and Chemotherapy 46(10):3323-3326 (2002). […] The MIC of the glycopeptide antibacterial agent determined from this experiment was used in FIC calculations. […]

[2] = test system: R. microsporus ATCC 14050; format: cell-based, Rhizopus microsporus
From the text: as §1

[3] = test system: M. circinelloides ATCC 26759; format: cell-based, Mucor circinelloides
From the text: as §1

SMILES | FICI [1] | FICI [2] | FICI [3]
C[C@@H]1[C@H](O)[C@@H](C)/C=C/C=C/C=C/C=C/C=C/C=C/C=C/[C@H](O[C@@H]2O[C@H](C)[C@@H](O)[C@H](N)[C@@H]2O)C[C@@H]2O[C@](O)(C[C@@H](O)C[C@@H](O)[C@H](O)CC[C@@H](O)C[C@@H](O)CC(=O)O[C@H]1C)C[C@H](O)[C@H]2C(=O)O [Amphotericin B] | 0.53 | 0.27 | 0.26
C[C@@H]1[C@H](O)[C@@H](C)/C=C/C=C/CC/C=C/C=C/C=C/C=C/C(O[C@H]2O[C@H](C)[C@@H](O)[C@H](N)[C@@H]2O)CC2O[C@](O)(CC(O)C(O)CCC(O)CC(O)CC(O)CC(=O)O[C@H]1C)CC(O)C2C(=O)O (stereo partly drawn) [Nystatin] | 0.51 | 0.51 | 0.28

From patent publication US7521418B2, “Use of a polyene macrolide antifungal agent in combination with a glycopeptide antibacterial agent” (Theravance, Inc., priority 2003, dated 2009)
